Experimental data published in patent US8034810B2, “Arylsulfonamido-substituted hydroxamic acid derivatives” (Novartis AG, priority 1999, dated 2011).

biological target: T1, MT1-MMP (Homo sapiens, UniProt P50281); assay: In vitro inhibition of MT1-MMP, fluorogenic peptide substrate; format: biochemical; details: catalytic domain of human MT1-MMP; substrate 10 μM; 37° C.
T1 construct: made in house
Experimental: The inhibitory activities of compounds of formula I on MT1-MMP, MMP1 (collagenase 1) and MMP2 (gelatinase A) can be determined as follows:
Stock solutions of substrate (MCA-Pro-Leu-Gly-Leu-Dpa-Ala-Arg-NH2, Knight, C. G., Willenbrock, F., Murphy, G., A novel coumarin-labelled peptide for sensitive continuous assays of the matrix metalloproteinases, FEBS lett., 296, 263-266, (1992)), are prepared in 100% DMSO at a concentration 1.0 mM. Stock solutions of inhibitors are prepared in 100% DMSO. The inhibitor is diluted into the assays from a solution in 100% DMSO, and controls substitute an equal volume of DMSO so that the final DMSO concentration from inhibitor and substrate dilutions in all assays is 6.0%. Assays are performed in assay buffer (150 mM NaCl, 10 mM CaCl2, 50 mM Tris-Cl pH7.5, 0.05% Brij-35) containing 6.0% DMSO once the substrate and inhibitor are diluted into it. The substrate concentration used in the assays is 10 μM. The test is carried out at 37° C. The fluorescence changes are monitored using an excitation wavelength of 320 nm and an emission wavelength of […]. The reaction mixture is added in duplicate to appropriate wells of a 96 well microfluor plate. The reaction mixture is preincubated with the inhibitor for 30 min, the reaction is started by the addition of MMP enzyme and the fluorescence intensity is measured for 10 min. A time point that is on a linear part of the curve is chosen to determine the activity. The inhibition results are expressed as the inhibitor concentrations that produced 50% inhibition (IC50) of the activity in the control (non-inhibited) reaction. In this test, the compounds of the formula I and their pharmacologically acceptable salts have an inhibiting concentration IC50 [μmol/litre] of 0.0001 and 0.030, usually of 0.0002 to 0.010, for MMP2 and an inhibiting concentration IC50 [μmol/litre] of 0.0005 and 0.125, usually of 0.001 to 0.05, for MT1-MMP.
Plasmid: The catalytic domain of the cDNA fragment encoding a full length of human MT1-MMP gene [from Prof. Motoharu Seiki, Institute of Medical Science, The University of Tokyo; Sato, H., Takino, T., Okada, Y., Cao, J., Shinagawa, A., Yamamoto, E. and Seiki, M. Nature (London), 370:61-65, 1994)] is amplified by polymerase chain reaction (PCR). […] The resulting PCR product of a 519-bp fragment is subcloned between the NdeI and BamHI unique sites of pET11a (Stratagene). The sequence of catalytic domain of MT1-MMP (CD-MT1-MMP) is verified by the ABI PRIS™ dye terminator cycle sequencing kit with the ABI PRISM™ 377 DNA sequencer (Perkin Elmer).
Expression and Purification: The subcloned CD-MT1-MMP is used to transfect E. coli strain BL21-[DE3] (Hanahan, D. J. Mol. Biol. 1983; 166(4):557-80) and expressed as insoluble inclusion body materials. Transfectants are grown at 37° C. in 50 ml Luria-Bertani (LB) medium in the presence of 50 µg/ml ampicillin to a cell density of OD600=0.6-1.0, and CD-MT1-MMP production is induced with 1 mM isopropyl-1-D-galactopyranoside (IPTG). After treatments with 5 mg/ml lysozyme and 10 μg/ml DNase I, the inclusion bodies are prepared from the harvested cells by using the detergent buffer containing 0.2 M NaCl, 1% w/v deoxycholic acid, and 1% v/v Nonidet P40. The solubilization is achieved by resuspending the inclusion bodies in the solubilization buffer composed of 6 M urea, 100 mM 2-mercaptoethanol, and 20 mM Tris-Cl, pH8.5. The enzyme is purified and renaturated using 10 ml of a Q-Sepharose (Amersham Pharmacia Biotech) column equilibrated with 5 mM CaCl2, 0.02% v/v NaN3, in 20 mM Tris-Cl pH7.5. After washing with three volumes of the same buffer, the bound proteins are eluted with two volumes of a linear gradient of 0.5-1.0 M NaCl. The collected fractions (1 ml each) are dialyzed for 6 h in equilibrated buffer. Superdex G200 column (1×15 cm) (Amersham Pharmacia) is equilibrated in 20 mM Tris-Cl, pH 7.5, 5 mM CaCl2, 0.02% NaN3. The desalted sample is applied to Superdex G200 column and chromatographed at 0.5 ml/min. […]

Structure (SMILES) | IC50 [nM]
COc1cccc(CN([C@H](C)C(=O)NO)S(=O)(=O)c2ccc(OCCCCl)cc2)c1 [Example 15, (R)-2-{[4-(3-chloro-propoxy)-benzenesulfonyl]-(3-methoxy-benzyl)-amino}-N-hydroxy-propionamide] | 3.7
O=C(NO)[C@@H](Cc1ccccc1)N(Cc1ccc(Cl)cc1)S(=O)(=O)c1ccc(OCCCF)cc1 [Example 30, (R)-2-{(4-chloro-benzyl)-[4-(3-fluoro-propoxy)-benzenesulfonyl]-amino}-N-hydroxy-3-phenyl-propionamide] | 12.7
COc1ccc(CN([C@H](CC(C)C)C(=O)NO)S(=O)(=O)c2ccc(OCCCCF)cc2)cc1 [Example 53, (R)-2-{[4-(4-fluoro-butoxy)-benzenesulfonyl]-(4-methoxy-benzyl)-amino}-N-hydroxy-4-methyl-valeramide] | 9.2
C=CCCOc1ccc(S(=O)(=O)N(Cc2cccc(OC)c2)[C@@H](C(=O)NO)C(C)C)cc1 [Example 13, (R)-2-[(4-but-3-enyloxy-benzenesulfonyl)-(3-methoxy-benzyl)-amino]-N-hydroxy-3-methyl-butyramide] | 5.5
